Data from patent publication US20260325500A1, “METHODS AND COMPOSITIONS FOR TREATING ACUTE STRESS DISORDER” (BioXcel Therapeutics, Inc., priority 2022, published 2026).
Where a name gives a salt, the structure may show the parent alone. Marks after values point to notes of the source that are not given here.

Experiments:
[1] = tested on: mouse behavior (SmartCube signature); assay: SmartCube system behavioral classification (Example 6); type: in vivo, Male C57/B16 mice; details: IP
Description: Dexmedetomidine and latrepirdine have anti-psychotic effects, when tested in the SmartCube® system (Psychogenics, Inc., Paramus, NJ; See also U.S. Pat. No. 7,580,798 incorporated herein by reference in its entirety). This system uses features derived from mouse behavioral data to first, classify mice on compound versus vehicle. This measure indicates how well the system can differentiate between a mouse on compound versus a mouse on vehicle. Secondly, by comparing the features to a proprietary reference database of behavioral feature sets that are linked to classes of marketed drugs known to treat neuro-psychiatric symptoms SmartCube® assigns a signature to the behavior. Thus, the system can be used as a model to identify both the activity and the psychiatric effect of a compound by comparing the effects of the compounds against drugs with known validated effects.
By comparing the responses of animals to known drugs, the test drug can be categorized according to its function; for example, hallucinogen, anxiogenic, analgesic, cognitive enhancer, psychostimulant, mood stabilizer, high dose anti-psychotic, anti-psychotic, sedative/hypnotic, anxiolytic, high dose antidepressant, antidepressant.
Once all features are extracted from the raw data through an automated pipeline, proprietary bioinformatics algorithms are used to decorrelate groups of features and find the combination of values that best separate different groups of interest. For each compound, at each dose, they system provides a probability that the drug is active and breaks down such putative activity into the different classes of interest.
SmartCube reference data used herein include anti-psychotics and anti-depressants tested at several dose ranges. “Anti-psychotic” versus “high dose anti-psychotic” as indicated in the legend, reflects the notion that anti-psychotics reference data is dose dependent. Anti-psychotics, when administered at higher doses, can engage additional receptor systems, and thus affect mouse behavior differently. The same applies for different doses of anti-depressants.
Animals: Male C57/B16 mice (N=12 per group) from Taconic Laboratories were used. Upon receipt, mice were group-housed in OPTI mouse ventilated cages with 4 mice per cage. Mice were acclimated to the colony room for at least one week prior to test and subsequently tested at approximately 8-9 weeks of age. All animals were examined, handled, and weighed prior to initiation of the study to assure adequate health and suitability and to minimize non-specific stress associated with manipulation.
All compounds tested were formulated in NP3 (vehicle solution): 5% Pharmasolve; 30% P3 (1:1:1 PEG200: PEG400: propylene glycol); 65% saline; pH is 5.1-6.
Test groups were: • Vehicle: NP3 • Dexmedetomidine at 0.005 and 0.010 mg/kg • Latrepirdine at 1 and 10 mg/kg • Dexmedetomidine and latrepirdine combinations (in mg/kg): 0.005/1.0; 0.005/10; 0.010/1.0; 0.010/10
Test compounds were injected intraperitoneally (IP) for 15 min before animals were placed in SmartCube for assessment.
Antipsychotic: SmartCube classifies the mouse behavior with test compound as similar to treatment with marketed anti-psychotics at therapeutically relevant doses.
High Dose Antipsychotic: SmartCube classifies the mouse behavior on test compound as similar to treatment with marketed anti-psychotics at doses that are considered as high therapeutically. High doses of anti-psychotics often cause sedation.
The results for the class analyses are presented as standardized bar charts with percentages that sum to 100 for each dose. The percentage indicates the probability the classifier can differentiate between the vehicle group and test group. The pattern indicates what class signature was assigned.

[2] = tested on: rat forced swim test model (depressive-like behavior); assay: Forced swim test in dark phase (Example 4); type: in vivo, Sprague Dawley rats; details: 30 mg/kg, p.o.; versus vehicle saline, 5 minutes observation
Description: Animal groups: Male Sprague Dawley (SD) rats (8-10 weeks old) were grouped housed 2 per cage in standard animal cages with facilities for pelleted food and drinking water in polycarbonate bottle with stainless steel sipper tubes. During the experimental period, animals were housed in a single experimental room. Rats were distributed in 7 different experimental groups with 9-12 rats per group as illustrated in Table 8. Animals were distributed to different groups based on body weight data. Each experimental group was also coded so that the experimenter became unaware of the true experimental group at the time FST trial.
Animals were housed in an environment-controlled room at 22±3° C. and relative humidity of 30 to 70 percent. During the study, 12/12 light/dark cycles were maintained. Lights of the acclimatization area were switched off at 06:00 PM. All experiments were carried out at ambient temperature under dark phase of lighting (between 06:00 PM to 06:00 AM). Adequate fresh air supply of 12-15 air changes/hour was maintained in the experimental room. The maximum and minimum temperature and relative humidity in the experimental rooms was recorded once daily. The relative humidity in the experimental room was calculated daily from dry and wet bulb temperature recordings.
Swim 1 was carried out between 18:30 to 21:30.
Swim 2 was carried out between 19:30 to 21:30. Animals were administered test compounds from 18:30 onwards in staggered manner 60 minutes before FST 2.
Forced swim test was carried out in dark phase
On Day 1, animals were subjected to forced swim test training for 15 minutes (Swim 1) and on Day 2, Swim 2 was carried out post treatment.
On day 2 animals were dosed with respective treatment 60 min prior to performing FST.
Forced swim test (Swim 2) was scored manually with no video recording.
Forced swim test (FST), was used to study the depressive-like behavior in rodents. The test was carried out in transparent cylindrical glass containers measuring 46 cm in height and 20 cm in diameter.
There were 2 swim sessions, 24 h apart. The first session, Swim 1 was the pretest/training stage (15 min) and the second session, Swim 2, was the test stage (8 min).
In swim 2, first 1-minute data was excluded from analysis and rest 7 minutes data was considered. In 7 minutes, data, it was divided 5 minutes and 2 minute.
Twenty-four hours after the start of Swim 1, the test swim (Swim 2) was carried out.
Rat was placed in the water-filled cylinder for 8 min (Swim 2).
The duration of time spent immobile, swimming, and climbing was observed by an observer blind to the treatment group.
Immobility period: A rat was judged to be immobile when it remained floating in the water without struggling and was making only those movements necessary to keep its head above water.
Statistical analysis: One Way ANOVA, Dunnet's multiple comparison test was applied with respect to vehicle saline and Tukey's multiple comparison test was applied to compare the data in between the groups using GraphPad Prism version 9 software.

[3] = tested on: Yohimbine-induced noradrenergic hyperarousal in Wistar rats; assay: Elevated plus maze, yohimbine-induced noradrenergic hyperarousal, dose response (Example 3); type: in vivo; details: 30 min
Description: Background: Yohimbine is an alpha 2-adrenergic receptor antagonist reported to trigger panic attacks in healthy volunteers and to exacerbate symptoms in patients with panic disorder (Charney et al., 1992 Acta Psychiatr Scand., Vol. 86 (4): 273-282). Peripheral administration of Yohimbine causes noradrenergic mediated hyperarousal in rats as assessed by the EPM paradigm.
Rationale: The drug yohimbine is a natural product used to test a specific pathway, noradrenergic-mediated hyper-arousal. It is well established that yohimbine is an alpha2-adrenergic receptor antagonist and activates the locus coeruleus (LC) and increases noradrenergic signaling (the opposite of alpha2-adrenergic agonists like dexmedetomidine and clonidine). Increased LC activity and noradrenergic signaling makes animals anxious and agitated which can be measured by using the elevated plus maze. In the elevated plus maze, rodents were in the closed arms and explored the open arms depending on their anxiety and agitation (rats and mice normally explore their environments extensively when calm). […] This behavior is correlated to increased level of anxiety caused by noradrenergic mediated hyperarousal.
(§1) Animal groups: Rats were distributed in 9 different experimental groups with 12 […] per group as illustrated in Table 6. Each experimental group was also coded so that the experimenter became unaware of the true experimental group at the time EPM trial.
Acclimatization: Male Wistar rats (Janvier; Le Genest St Isle-France) were used for the study. They were purchased at a body weight of 150 g and reached a body weight of about 220 g at the time of use. They were group-housed (3-4 rats per cage) and maintained in a room with controlled temperature (21-22° C.) and a reversed light-dark cycle (12 h/12 h; lights on: 17:30-05:30; lights off: 05:30-17:30).
Drug preparation: All compounds/drugs were prepared in normal saline (0.9% NaCl).
Yohimbine was prepared at a solution of 2.5 mg/mL which when injected i.p. at a dosage volume of 1 mL/kg results in a dose of 2.5 mg/kg. Diazepam was prepared at a solution of 1 mg/mL which when injected i.p. at a dosage volume of 1 mL/kg results in a dose of 1 mg/kg. Latrepirdine dihydrochloride hydrate was prepared at a solution of 7.5, 2.5, 0.75 and 0.25 mg/mL which when injected i.m. at a volume of 100 μL for a rat of 250 g results in doses of 3; 1; 0.3 and 0.1 mg/kg; respectively. Latrepirdine dihydrochloride hydrate was also prepared at […] which when administrated i.p. at a dosage volume of 1 mL/kg results in a dose of 3 mg/kg.
Experimental procedure: The rats were randomly assigned to one of the different experimental groups. Each animal was identified by its group name, cage number, series (day) of experiment, and a number (from 1 to 9) written with permanent ink on its tail. They were handled by an experimenter for about 3 min each day during 1 week prior to the day of EPM trial. The apparatus was a PVC maze covered with Plexiglas and subdivided into four equal exploratory arms (40×10 cm), which were all interconnected by a small platform (10×10 cm). The apparatus was placed 65 cm above the floor. Two arms were opened, and two others were closed with wall (high: 10 cm). After compound administration, rat was placed on the platform opposite a closed arm. The number of entries and the time spent in each arm were recorded during a 5 min period. The animal was considered as entered in an arm when it placed its four paws in the arm. The apparatus was cleaned between each animal using alcohol (70%). Urine and feces were removed from the maze. During the trials, animal handling and the visibility of the operator were minimized as much as possible.
Statistical analysis: Analysis of variance (ANOVA) was performed on the result data. Fisher's PLSD was used for pairwise comparisons and p value≤0.05 were considered significant. […]

[4] = tested on: CCK-4 induced panic anxiety in rats; assay: Elevated plus maze, CCK-4 induced panic anxiety (Example 8); type: in vivo, Wistar rats; details: diazepam 1 mg/kg; CCK4 0.2 mg/kg i.p.
Description: Rationale: In the past two decades panic induction with cholecystokinin-tetrapeptide (CCK-4) as an experimental model of human anxiety has become a focus of intensive research. CCK-4 is a synthetic analog of the endogenous neuropeptide cholecystokinin (CCK), which has been found in different brain regions. Particularly, high concentrations of CCK have been detected in regions that have been implicated in the mediation of panic attacks such as the cerebral cortex, amygdala, hippocampus, and brainstem nuclei. CCK-4 dose dependently induces panic attacks in healthy controls. Thus, CCK-4 has been postulated to fulfil the criteria for an ideal and valid panicogenic agent. […] Therefore, the CCK-4 challenge paradigm can serve as a useful tool to evaluate the anti-panic potential of novel anxiolytic compounds.
as §1, with “groups: Male Wistar” for “groups:”, “Rats were purchased at a body weight of 150 g and reached a body weight of about 220 g at the time of use. Animals” for “Rats”, “6” for “9”, “11.” for “6.”
Study drugs: All compounds/drugs were prepared in saline (0.9% NaCl).
CCK-4 was prepared at a solution of 0.2 mg/ml which when injected i.p. at a dosage volume of 1 ml/kg results in a dose of 0.2 mg/kg.
Diazepam was prepared at a solution of 1 mg/ml which when injected i.p. at a dosage volume of 1 ml/kg results in a dose of 1 mg/kg.
Latrepirdine was prepared at concentrations of 2.5, 7.5, 25 and 37.5 mg/ml which when injected i.m. at a volume of 100 μL for a rat of 250 g results in doses of 1, 3, 10 and 15 mg/kg respectively.
Study design and dosing: The rats were randomly assigned to one of the different experimental groups. Each animal was identified by its group name, cage number, series (day) of experiment, and a number (from 1 to 4) written with permanent ink on its tail. They were handled by an experimenter for about 3 min each day during 1 week prior to the day of EPM trial.
The apparatus is a PVC maze covered with Plexiglas and subdivided into four equal exploratory arms (40×10 cm), which are all interconnected by a small platform (10×10 cm). The apparatus is placed 65 cm above the floor. Two arms are opened, and two others are closed with wall (high: 10 cm).
After compound administration, rat is placed on the platform opposite a closed arm. The number of entries and the time spent in each arm are recorded during a 5 min period. The animal is considered as entered in an arm when it places its four paws in the arm.
Statistical analysis: Data was analyzed using One-Way ANOVA followed by multiple comparison with Dunnett's post-hoc test. All statistical analyses were performed using GraphPad Prism software package (Version 9) and p value below 0.05 was considered as significant.

[5] = diazepam 1 mg/kg, i.p., yohimbine hydrochloride 2.5 mg/kg i.p.

Q: What does the source list for `Cc1cccc([C@H](C)c2cnc[nH]2)c1C` [dexmedetomidine, (+) 4-(S)-[1-(2,3-dimethylphenyl)ethyl]-1H-imidazole]?
A: SmartCube signature ([1]; 0.005 and 0.010 mg/kg): antipsychotic signature; SmartCube total activity ([1]; dexmedetomidine 0.005 mg/kg): 9%; SmartCube total activity ([1]; dexmedetomidine 0.010 mg/kg): 40%

Q: Which results are given for `CNCCCN1c2ccccc2CCc2ccccc21` [desipramine hydrochloride]?
A: climbing time [2]: increase; immobility time [2]: significant decrease; swimming time [2]: failed to show any significant effect

Q: Which “Percent increase as referred to the Vehicle level, Entries” value [3, 5] does the source give for `CN1C(=O)CN=C(c2ccccc2)c2cc(Cl)ccc21` [Diazepam] here?
A: 294%

Q: And the “Percent increase as referred to the Vehicle level, Time” value [3, 5]?
A: 642%

Q: What about the “Entries, % increase as compared to CCK-4/Vehicle” value [4] of the same compound?
A: (400.00) **** %

Q: What about the “Entries, Mean ± SEM” value [4] of the same compound?
A: 9.5±0.5 n

Q: What about the “Time, % increase as compared to CCK-4/Vehicle” value [4] of the same compound?
A: (652.27) **** %

Q: And the “Time, Mean ± SEM” value [4]?
A: 99.3 ± 3.8 s

Q: Which “number of visits to and time spent into the open arms versus vehicle-treated saline rats” value ([3]; yohimbine 2.5 mg/kg i.p.) does the source give for `COC(=O)[C@@H]1[C@H]2C[C@H]3c4[nH]c5ccccc5c4CCN3C[C@@H]2CC[C@@H]1O` [yohimbine] here?
A: marked significant decrease
